# From patent US8859848B2, “Phloretin glycosyltransferases, polynucleotides encoding these and methods of use” (The New Zealand Institute for Plant and Food Research …, priority 2007, dated 2014)
# Entries after “also recorded” stand apart in the source; their conditions may differ. Where two headings read alike, the source gives them in different places.
# T1: MpUGT88A1 (Malus domestica, UniProt B3TKC8)
# T1 construct: The entire coding region of the MpUGT88A1 cDNA was cloned in frame into the expression vector pET30a(+); made in house; host or cells: E. coli BL21-Codon-Plus-RIL
# T1 sequence (B3TKC8 1-483): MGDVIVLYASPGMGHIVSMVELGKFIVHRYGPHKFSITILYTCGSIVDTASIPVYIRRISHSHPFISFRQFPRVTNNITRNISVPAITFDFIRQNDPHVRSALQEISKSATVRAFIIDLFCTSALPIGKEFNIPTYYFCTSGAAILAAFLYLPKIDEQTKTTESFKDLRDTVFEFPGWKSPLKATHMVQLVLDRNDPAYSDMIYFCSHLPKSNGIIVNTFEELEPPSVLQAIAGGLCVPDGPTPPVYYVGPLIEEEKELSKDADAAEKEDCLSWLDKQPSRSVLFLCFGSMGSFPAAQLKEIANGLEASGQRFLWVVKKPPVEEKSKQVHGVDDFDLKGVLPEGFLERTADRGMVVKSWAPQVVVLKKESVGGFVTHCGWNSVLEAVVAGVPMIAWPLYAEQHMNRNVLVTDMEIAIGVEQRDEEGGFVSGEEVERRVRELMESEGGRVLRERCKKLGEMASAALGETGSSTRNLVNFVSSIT
# Experiments:
# Type in all cases: biochemical
# [1] = target: T1, MpUGT88A1; experiment: UGT activity assay with [3H]-UDP-glucose, recombinant MpUGT88A1; conditions: [3H]-UDP-glucose as sugar donor; 2 mM substrate; 30° C., 30 min
# Description: UGT activity assays were performed in triplicate in 50 μl reactions using ˜1-2 μg of recombinant protein purified on His-Trap and G200 Superdex columns. […] Reactions were performed at 30° C. for 30 min and terminated by addition of 10 μL of 2 M HCl. The reaction mixtures were extracted twice with 100 μL of ethyl acetate and 20 μl of the organic phase were combined with 1 ml of non-aqueous scintillation fluid and analysed by liquid scintillation counting (Tri-Carb 2900TR, PerkinElmer, Boston, Mass., USA). Boiled enzyme and pET30a(+) vector controls were run in parallel with all enzyme reactions. […]
# Fifteen substrates (caffeic acid, catechin, chlorogenic acid, 2-coumaric acid, 3-coumaric acid, 4-coumaric acid, cyanidin, 3-(3,4 dihydroxyphenyl) propionic acid, epicatechin, 3-hydroxybenzoic acid, naringenin, phloretin, protocatechuic acid, quercetin and rutin) that are natural constituents of apple fruit or commonly available phenolic compounds were screened for activity.
# [2] = target: T1, MpUGT88A1; conditions: 2 μM phloretin; for inhibition of enzyme activity by divalent cations: 25 mM
# Description: (§1) UGT activity assays were performed in triplicate in 50 μl reactions using ˜1-2 μg of recombinant protein purified on His-Trap and G200 Superdex columns. […] Reactions were performed at 30° C. for 30 min and terminated by addition of 10 μL of 2 M HCl. The reaction mixtures were extracted twice with 100 μL of ethyl acetate and 20 μl of the organic phase were combined with 1 ml of non-aqueous scintillation fluid and analysed by liquid scintillation counting (Tri-Carb 2900TR, PerkinElmer, Boston, Mass., USA). Boiled enzyme and pET30a(+) vector controls were run in parallel with all enzyme reactions.
# (§2) The effect on UGT activity of different pH (5-10), temperature (15-50° C.) and ionic strength of monovalent (Na^+, 0-100 mM; K^+, 0-10 mM) and divalent ions ([…] or Mn^2+, 0-25 mM) was determined as described above using 2 μM phloretin.
# [3] = target: T1, MpUGT88A1; conditions: 10 μM phloretin, 250 μM UDP-sugar, 16 h
# [4] = Phloretin glycosyl transferase activity assay of recombinant Md—138221; conditions: recombinant protein from E. coli
# Description: as §1
# [5] = Effect of pH and temperature on UGT activity of MpUGT88A1 towards phloretin; conditions: 2 μM phloretin
# Description: as §1, §2
Molecule,utilised by MpUGT88A1 as an acceptor (substrate screen) [1],also measured
O=C(O)/C=C/c1ccccc1O [2-coumaric acid],only phloretin was utilised,–
"O=C(O)CCc1ccc(O)c(O)c1 [3-(3,4 dihydroxyphenyl) propionic acid]",only phloretin was utilised,–
O=C(O)/C=C/c1cccc(O)c1 [3-coumaric acid],only phloretin was utilised,–
O=C(O)c1cccc(O)c1 [3-hydroxybenzoic acid],only phloretin was utilised,–
O=C(O)/C=C/c1ccc(O)cc1 [4-coumaric acid],only phloretin was utilised,–
[K+] [K^+],–,inhibition of enzyme activity by monovalent cation ([2]; 10 mM): not inhibited
[Mg+2] [Mg^2+],–,inhibition of enzyme activity by divalent cations [2]: not inhibited
[Mn+2] [Mn^2+],–,inhibition of enzyme activity by divalent cations [2]: not inhibited
[Na+] [Na^+],–,inhibition of enzyme activity by monovalent cation ([2]; 100 mM): not inhibited
O=c1ccn([C@@H]2O[C@H](COP(=O)(O)OP(=O)(O)O[C@H]3OC[C@@H](O)[C@H](O)[C@H]3O)[C@@H](O)[C@H]2O)c(=O)[nH]1 [UDP-xylose],–,glycosylated product formation with phloretin and activated sugar donor (HPLC/LC-MS) [3]: a single glycosylated product was formed
O=C(O)/C=C/c1ccc(O)c(O)c1 [caffeic acid],only phloretin was utilised,–
O=C(/C=C/c1ccc(O)c(O)c1)O[C@@H]1C[C@](O)(C(=O)O)C[C@@H](O)[C@H]1O [chlorogenic acid],only phloretin was utilised,–
O=C1C[C@@H](c2ccc(O)cc2)Oc2cc(O)cc(O)c21 [naringenin],only phloretin was utilised; also recorded: not utilised as substrates,–
O=C(CCc1ccc(O)cc1)c1c(O)cc(O)cc1O [phloretin],only phloretin was utilised,–
O=C(O)c1ccc(O)c(O)c1 [protocatechuic acid],only phloretin was utilised,–
O=c1c(O)c(-c2ccc(O)c(O)c2)oc2cc(O)cc(O)c12 [quercetin],only phloretin was utilised; also recorded: not utilised as substrates,–
catechin,only phloretin was utilised,–
"Md—138221: variant phloretin glycosyltransferase polypeptide from Malus x domestica (protein, listed as Malus domestica) MGDVIVLYAAPGMGHVISMVELGKLILHRYGPHKFSITILYTCGSFFDTPSIPAYIRRISHSHPSISFRQFPRVTNKITQNISGTAIVVDFVRQNDPHVRRALQDISKSAVVRAFIIDLVCTSAMTISKEFDIPTYYFYTSGAAALGAFLYFPKIHEQTTQSFKDLTDTVIEFPGRKSPLKAIHMIEPLLDRDDPAYWDFLSFCSDLPKSKGIIVNTFEELEPPAVLHAIAEGLCVPDGPTSPVYYVGPLIDEEKVSGNDAAAAEEDCLSWLDKQPSRSVVFLCFGSRGSLPAIQLKEIAKALEASGQRFLWVVKKPPVDEKTKQVLGVDDFDLEGVLPEGFLERTKDRGMVVKSWAPQAEVLKKESVGGFVTHCGWNSVLEAVVAGVPMIAWPLYAEQHLNRNVMATDMEIAIAVEQRDEEDGFVSGEELERRVRELMESEEGRVLRERSKKIGEMAMAALGENGSSTRNLVNFVNSLT",–,phloretin glycosyltransferase activity relative to that shown for MpUGT88A1 [4]: approximately 3%
"MpUGT88A1: Malus domestica uridine diphosphate glycosyltransferase; recombinant His6-tagged phloretin glycosyltransferase produced in E. coli (protein, listed as Malus domestica, His6 tag, Malus domestica uridine diphosphate glycosyltransferase; recombinant His6-tagged phloretin glycosyltransferase produced in E. coli) MGDVIVLYASPGMGHIVSMVELGKFIVHRYGPHKFSITILYTCGSIVDTASIPVYIRRISHSHPFISFRQFPRVTNNITRNISVPAITFDFIRQNDPHVRSALQEISKSATVRAFIIDLFCTSALPIGKEFNIPTYYFCTSGAAILAAFLYLPKIDEQTKTTESFKDLRDTVFEFPGWKSPLKATHMVQLVLDRNDPAYSDMIYFCSHLPKSNGIIVNTFEELEPPSVLQAIAGGLCVPDGPTPPVYYVGPLIEEEKELSKDADAAEKEDCLSWLDKQPSRSVLFLCFGSMGSFPAAQLKEIANGLEASGQRFLWVVKKPPVEEKSKQVHGVDDFDLKGVLPEGFLERTADRGMVVKSWAPQVVVLKKESVGGFVTHCGWNSVLEAVVAGVPMIAWPLYAEQHMNRNVLVTDMEIAIGVEQRDEEGGFVSGEEVERRVRELMESEGGRVLRERCKKLGEMASAALGETGSSTRNLVNFVSSIT",–,"pH range of significant activity ([5]; pH range 5-10): 7-8; pH of maximum activity ([5]; pH range 5-10, 50 mM Tris-HCl): 7.7; activity at pH 5 and 10 ([5]; relative to maximum): less than 5%; activity at pH 6 and 9 ([5]; relative to maximum): 20%; temperature of maximum activity ([5]; standard conditions): 25 °C; temperature range of activity ([5]; standard conditions): 15-50 °C"
